Assay results: PubChem BioAssay AID1845207 (Molecular Pharmacology Branch, DTP, NCI, 2023)

Tested on: NCI-H1876 tumor spheroid viability
Assay: Anticancer human tumor NCI-H1876 cell line growth inhibition;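 also: spheroids exposed to compounds for seven days before the viability read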;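 as to viability, T/C: percent of DMSO vehicle control viability so 100% = vehicle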
Settings: spheroids with HUVEC and MSC; for IC50: curve of first compound; for viability, T/C: stronger effect = lower value
Source text: Multicellular complex tumor spheroid response to DNA repair inhibitors in combination with DNA-damaging drugs
This study explores the anticancer activities of DNA-damaging drugs and inhibitors of DNA damage repair, both as single agents and in combinations. Complex tumor spheroids comprised of malignant cells, endothelial cells and mesenchymal stem cells served as an in vitro model for human solid tumors. This model system incorporates physiologically relevant features and patient-derived or established malignant cell lines with clinically relevant genetic alterations from many tumor types. Twenty-six patient-derived or established malignant cell lines were evaluated representing sarcoma, melanoma, small cell lung cancer (SCLC), non-small cell lung cancer (NSCLC), as well as bladder, ovarian and pancreatic cancers. The concentration ranges selected for each drug and investigational agent were based upon clinically achievable concentrations if the clinical Cmax of the agent was known.
Compounds. The drugs and compounds olaparib (NSC753686), talazoparib (NSC767125), berzosertib (NSC777718), elimusertib (NSC800525), nedisertib (NSC802822), VX-984 (NSC792969), AZD-1390 (NSC803789), temozolomide (NSC362856), topotecan (NSC609699), trabectedin (NSC813783), staurosporine (NSC755774), and gemcitabine (NSC613327) were obtained from the National Cancer Institute (NCI) Developmental Therapeutics Program Chemical Repository. The FDA-approved anticancer drug set is available from the Developmental Therapeutics Program at https://dtp.cancer.gov/organization/dscb/obtaining/available_plates.htm. […] The stock solutions were prepared in dimethyl sulfoxide (DMSO, Sigma-Aldrich, St. Louis, MO, cat. D2650) at 400-fold the tested concentration and stored at -70 degrees C. Prior to their use, the stock solutions were diluted in fresh medium and the final DMSO concentration in the assay was 0.25% (v/v). All drugs and investigational agents were tested over a range starting from a high concentration at or near the clinical Cmax and decreasing in half-log increments. If the clinical Cmax for an agent had not been determined, the highest concentration tested was 10 microM.
Cell Lines. The patient-derived cancer cell (PDC) lines: 156681-154-R-J1-PDC, 283228-195-R-J1-PDC, 287954-098-R-J1-PDC, 292921-168-R-J2-PDC, 349418-098-R-PDC, 425362-245-T-J1-PDC, 556581-035-R-J1-PDC, and BL0293-F563-PDC were received from the NCI Patient-Derived Models Repository (PDMR, https://pdmr.cancer.gov). The established cell lines HS-SY-2 (RRID:CVCL_8719), MPNST, and SYO-1 (RRID:CVCL_7146) were obtained from the Sloan Kettering Institute. The alveolar soft parts sarcoma cell line ASPS-1 (RRID:CVCL_S738) was established at the NCI and grown from internal seed stocks. The following established cell lines were purchased from the American Type Culture Collection (ATCC, Manassas, VA): G-401 (ATCC, cat. CRL-1441, RRID:CVCL_0270), SW982 (ATCC, cat. HTB-93, RRID:CVCL_1734), VA-ES-BJ (ATCC, cat. CRL-2138, RRID:CVCL_1785), NCI-H719 (ATCC, cat. CRL-5837, RRID:CVCL_1582), NCI-H196 (ATCC, cat. CRL-5823, RRID:CVCL_1509), NCI-H841 (ATCC, cat. CRL-5845, RRID:CVCL_1595), NCI-H1618 (ATCC, cat. CRL-5879, RRID:CVCL_1480), NCI-H1876 (ATCC, cat. CRL-5902, RRID:CVCL_1503), DMS 114 (ATCC, cat. CRL-2066; RRID:CVCL_1174), NCI-H211 (ATCC, cat. CRL-5824; RRID:CVCL_1529), and SW 1271 (ATCC, cat. CRL-2177, RRID:CVCL_1716). The small cell lung cancer cell line COR-L88 was purchased from Sigma-Aldrich (cat. 92031917-1VL, RRID:CVCL_1141). The non-small cell lung cancer cell lines NCI-H226 (RRID:CVCL_1544) and NCI-H322M (RRID:CVCL_1557) were established at the NCI and grown from internal seed stocks. Pooled donor human umbilical vein endothelial cells (HUVEC, Lonza, cat. CC-2519) and human mesenchymal stem cells (hMSC, Lonza, cat. PT-2501) were purchased from Lonza (Walkersville, MD).
Cell Culture. All cells were maintained in an incubator at 37 degrees C and 5% CO2 with 95% humidity. […]

[1] = second compound 30 pM, first compound 0.0316 µM
[2] = second compound 30 pM, first compound 0.1 µM
[3] = second compound 30 pM, first compound 0.316 µM
[4] = second compound 30 pM, first compound 1 µM
[5] = second compound 30 pM, first compound 3.16 µM
[6] = second compound 30 pM, first compound 10 µM
[7] = second compound 94.9 pM, first compound 0.0316 µM
[8] = second compound 94.9 pM, first compound 0.1 µM
[9] = second compound 94.9 pM, first compound 0.316 µM
[10] = second compound 94.9 pM, first compound 1 µM
[11] = second compound 94.9 pM, first compound 3.16 µM
[12] = second compound 94.9 pM, first compound 10 µM
[13] = second compound 0.0003 µM, first compound 0.0316 µM
[14] = second compound 0.0003 µM, first compound 0.1 µM
[15] = second compound 0.0003 µM, first compound 0.316 µM
[16] = second compound 0.0003 µM, first compound 1 µM
[17] = second compound 0.0003 µM, first compound 3.16 µM
[18] = second compound 0.0003 µM, first compound 10 µM
[19] = second compound 0.000949 µM, first compound 0.0316 µM
[20] = second compound 0.000949 µM, first compound 0.1 µM
[21] = second compound 0.000949 µM, first compound 0.316 µM
[22] = second compound 0.000949 µM, first compound 1 µM
[23] = second compound 0.000949 µM, first compound 3.16 µM
[24] = second compound 0.000949 µM, first compound 10 µM
[25] = second compound 0.003 µM, first compound 0.0316 µM
[26] = second compound 0.003 µM, first compound 0.1 µM
[27] = second compound 0.003 µM, first compound 0.316 µM
[28] = second compound 0.003 µM, first compound 1 µM
[29] = second compound 0.003 µM, first compound 3.16 µM
[30] = second compound 0.003 µM, first compound 10 µM

Compound | IC50 (second compound 30 pM) [nM] | IC50 (second compound 94.9 pM) [nM] | IC50 (second compound 0.0003 µM) [nM] | IC50 (second compound 0.000949 µM) [nM] | IC50 (second compound 0.003 µM) [nM] | viability, T/C [1] [%] | viability, T/C [2] [%] | viability, T/C [3] [%] | viability, T/C [4] [%] | viability, T/C [5] [%] | viability, T/C [6] [%] | viability, T/C [7] [%] | viability, T/C [8] [%] | viability, T/C [9] [%] | viability, T/C [10] [%] | viability, T/C [11] [%] | viability, T/C [12] [%] | viability, T/C [13] [%] | viability, T/C [14] [%] | viability, T/C [15] [%] | also measured
Cc1cc(C)c(CNC(=O)c2cc(-c3ccc(CN4CCOCC4)cc3)cc3c2cnn3C2CCCC2)c(=O)[nH]1 + COc1cc2c(cc1O)CCNC21CSC2c3c(OC(C)=O)c(C)c4c(c3C(COC1=O)N1C(O)C3Cc5cc(C)c(OC)c(O)c5C(C21)N3C)OCO4 | > 10000 | > 10000 | < 31.6 | < 31.6 | < 31.6 | 103 | 101 | 104 | 104 | 104 | 85.3 | 93.1 | 94.2 | 94.1 | 91.5 | 93.2 | 63.8 | 29.7 | 33.7 | 34.9 | viability, T/C [16]: 27.2%; viability, T/C [17]: 28.6%; viability, T/C [18]: 17.4%; viability, T/C [19]: 2.79%; viability, T/C [20]: 5.13%; viability, T/C [21]: 3.54%; viability, T/C [22]: 3.83%; viability, T/C [23]: 3.88%; viability, T/C [24]: 4.21%; viability, T/C [25]: 0.62%; viability, T/C [26]: 0.99%; viability, T/C [27]: 0.83%; viability, T/C [28]: 1.17%; viability, T/C [29]: 0.68%; viability, T/C [30]: 0.88%
COc1ccc([C@@H](O)c2cc(-c3ncnc4cc(N5CCOCC5)ccc34)c(F)cc2Cl)nn1 + COc1cc2c(cc1O)CCNC21CSC2c3c(OC(C)=O)c(C)c4c(c3C(COC1=O)N1C(O)C3Cc5cc(C)c(OC)c(O)c5C(C21)N3C)OCO4 | 2540 | 778 | < 31.6 | < 31.6 | < 31.6 | 104 | 102 | 99.5 | 92 | 40.2 | 8.98 | 93 | 87.6 | 78 | 41.5 | 16.1 | 5.87 | 20.7 | 20.1 | 15.1 | viability, T/C [16]: 7.3%; viability, T/C [17]: 2.15%; viability, T/C [18]: 2.31%; viability, T/C [19]: 2.44%; viability, T/C [20]: 2.76%; viability, T/C [21]: 3.13%; viability, T/C [22]: 1.08%; viability, T/C [23]: 0.81%; viability, T/C [24]: 0.98%; viability, T/C [25]: 0.93%; viability, T/C [26]: 0.67%; viability, T/C [27]: 0.53%; viability, T/C [28]: 0.63%; viability, T/C [29]: 0.36%; viability, T/C [30]: 0.33%
